19 compounds from patent US20210040118A1, “IMMUNOMODULATORS, COMPOSITIONS AND METHODS THEREOF” (BETTA PHARMACEUTICALS CO., LTD, priority 2018, published 2021) can be followed below.

For this assay, the target named is T1, PD-1/PD-L1 (Homo sapiens, UniProt Q9NZQ7).
T1 construct: Recombinant human PD-L1 protein (19-238) with a His-tag at the C-terminus; purchased AcroBiosystems PD1-H5229 (PD-L1); PD1-H5257 (PD-1)
In words: PD-1/PD-L1 homogenous time-resolved fluorescence (HTRF) binding assay. As to conditions: recombinant human PD-L1 (19-238) His-tag / human PD-1 (25-167) Fc tag, class symbols. An outline of the steps:
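HTRF binding of human PD-1 (25-167, Fc-tagged) at 3 nM and PD-L1 (19-238, His-tagged) at 10 nM, preincubated 40 min with inhibitor in PBS pH 7.4, 0.05% Tween-20, 0.1% BSA, 1% DMSO, 25°C. Eu anti-IgG (1 nM) and anti-His-APC (20 nM) added, 60 min; 665/620 nm ratio; IC50 from curve fit.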

T1 sequence (Q9NZQ7 19-238): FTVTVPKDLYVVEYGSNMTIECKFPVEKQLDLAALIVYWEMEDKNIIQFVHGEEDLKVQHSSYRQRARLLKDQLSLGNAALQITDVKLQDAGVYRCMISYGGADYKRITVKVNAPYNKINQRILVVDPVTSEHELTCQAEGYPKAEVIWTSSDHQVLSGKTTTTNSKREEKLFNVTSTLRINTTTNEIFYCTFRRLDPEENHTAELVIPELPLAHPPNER

The term IC50 denotes the point on the concentration scale where inhibition reaches its midpoint. In the case of `Cc1c(NC(=O)c2nc3c(s2)CNCC3)cccc1-c1cccc(NC(=O)c2nc3c(s2)CNCC3)c1Cl` [Example 48, N,N′-(2-chloro-2′-methylbiphenyl-3,3′-diyl)bis(4,5,6,7-tetrahydrothiazolo[5,4-c]pyridine-2-carboxamide)], the IC50 is under 25 nM.

With `Cc1nc(C(=O)Nc2cccc(-c3cccc(NC(=O)c4nc(C)c(CN5CCCC[C@H]5C(=O)O)s4)c3C)c2C)sc1CN1CCCC[C@H]1C(=O)O` [Example 52, (2S,2'S)-1,1′-(2,2′-(2,2′-dimethylbiphenyl-3,3′-diyl)bis(azanediyl)bis(oxomethylene)bis(4-methylthiazole-5,2-diyl))bis(methylene)dipiperidine-2-carboxylic acid], the IC50 was under 25 nM. The same measure for `Cc1c(NCc2nc3c(s2)CNCC3)cccc1-c1cccc(NCc2nc3c(s2)CNCC3)c1C` [Example 25, 2,2′-dimethyl-N3,N3′-bis((4,5,6,7-tetrahydrothiazolo[5,4-c]pyridin-2-yl)methyl)-[1,1′-biphenyl]-3,3′-diamine]: 25 to 100 nM; for `Cc1c(NC(=O)c2nc3c(s2)CNCC3)cc(F)cc1-c1cccc2c1CCN2C(=O)c1nc2c(s1)CNCC2` [Example 95, N-(5-fluoro-2-methyl-3-(1-(4,5,6,7-tetrahydrothiazolo[5,4-c]pyridine-2-carbonyl)indolin-4-yl)phenyl)-4,5,6,7-tetrahydrothiazolo[5,4-c]pyridine-2-carboxamide]: under 25 nM; for `Cc1c(NC(=O)c2nc3c(s2)CNCC3)cc(Cl)cc1-c1cc(Cl)cc(NC(=O)c2nc3c(s2)CNCC3)c1C` [Example 93, N,N′-(5,5′-dichloro-2,2′-dimethyl-[1,1′-biphenyl]-3,3′-diyl)bis(4,5,6,7-tetrahydrothiazolo[5,4-c]pyridine-2-carboxamide)]: under 25 nM. For the compound `O=C(c1nc2c(s1)CNCC2)N1CCc2c(-c3cccc4c3CCN4c3nccc4cc(CNCCO)cnc34)cccc21` [Example 100, (1′-(3-(((2-hydroxyethyl)amino)methyl)-1,7-naphthyridin-8-yl)-[4,4′-biindolin]-1-yl)(4,5,6,7-tetrahydrothiazolo[5,4-c]pyridin-2-yl)methanone], the half-maximal inhibitory concentration (IC50) is under 25 nM.

As for `COC(=O)NCCNCc1cnc2c(Nc3cccc(-c4cccc5c4CCN5C(=O)C4=NC5CCN(CC(=O)O)CC5S4)c3C)nccc2c1` (stereo not shown) [Example 159, 2-(2-(4-(3-((3-(((2-((methoxycarbonyl)amino)ethyl)amino)methyl)-1,7-naphthyridin-8-yl)amino)-2-methylphenyl)indoline-1-carbonyl)-3a,6,7,7a-tetrahydrothiazolo[5,4-c]pyridin-5(4H)-yl)acetic acid], the IC50 was under 25 nM. Regarding `Cc1nc(C(=O)N2CCc3c(-c4cccc5c4CCN5C(=O)c4nc(C)c(CN5CCCC[C@H]5C(=O)O)s4)cccc32)sc1CN1CCCC[C@H]1C(=O)O` [Example 56, (2S,2'S)-1,1′-(2,2′-(4,4′-biindoline-1,1′-diylbis(oxomethylene))bis(4-methylthiazole-5,2-diyl))bis(methylene)dipiperidine-2-carboxylic acid], the IC50 is under 25 nM. Next, `Cc1c(NC(=O)c2ccc3c(n2)CCNC3)cccc1-c1cccc(NC(=O)c2ccc3c(n2)CCNC3)c1C` [Example 167, N,N′-(2,2′-dimethyl-[1,1′-biphenyl]-3,3′-diyl)bis(5,6,7,8-tetrahydro-1,6-naphthyridine-2-carboxamide)]: under 25 nM; `CC(C(=O)NS(C)(=O)=O)N1CCc2nc(C(=O)N3CCc4c(-c5cccc6c5CCN6C(=O)c5nc6c(s5)CN(C(C)C(=O)NS(C)(=O)=O)CC6)cccc43)sc2C1` (stereo not shown) [Example 127, 2,2′-(([4,4′-biindoline]-1,1′-dicarbonyl)bis(6,7-dihydrothiazolo[5,4-c]pyridine-2,5(4H)-diyl))bis(N-(methylsulfonyl)propanamide)]: under 25 nM. The same measure for `NC(=S)NCCN1CCc2nc(C(=O)N3CCc4c(-c5cccc6c5CCN6C(=O)c5nc6c(s5)CN(CCNC(N)=S)CC6)cccc43)sc2C1` [Example 133, 1,1′-((([4,4′-biindoline]-1,1′-dicarbonyl)bis(6,7-dihydrothiazolo[5,4-c]pyridine2,5(4H)-diyl))bis(ethane-2,1-diyl))bis(thiourea)]: under 25 nM; for `CC(=O)NCCNCc1cnc2c(Nc3cccc(-c4cccc(Nc5nccc6cc(CNCCNC(C)=O)cnc56)c4C)c3C)nccc2c1` [Example 152, N,N′-((((((2,2′-dimethyl-[1,1′-biphenyl]-3,3′-diyl)bis(azanediyl))bis(1,7-naphthyridine-8,3-diyl))bis(methylene))bis(azanediyl))bis(ethane-2,1-diyl))diacetamide]: under 25 nM. In the case of “2-((3′-(6,6-dimethyl-5,6,7,8-tetrahydro-614-1,6-naphthyridin-7-ylium-2-carboxamido)-2,2′-dimethyl-[1,1′-biphenyl]-3-yl)carbamoyl)-6,6-dimethyl-5,6,7,8-tetrahydro-1,6-naphthyridin-6-ium chloride [Example 171]”, the concentration for half-maximal inhibition (IC50) is under 25 nM. Consider `Cc1c(NC(=O)c2ncc(CNCCO)s2)cccc1-c1cccc(NC(=O)c2ncc(CNCCO)s2)c1C` [Example 7, N,N′-(2,2′-dimethyl-[1,1′-biphenyl]-3,3′-diyl)bis(5-(((2-hydroxyethyl)amino)methyl)thiazole-2-carboxamide)], for which the 50% inhibitory concentration (IC50) was under 25 nM. The same measure for `Cc1c(NC(=O)c2nnc(CNCCO)s2)cccc1-c1cccc(NC(=O)c2nnc(CNCCO)s2)c1C` [Example 73, N,N′-(2,2′-dimethyl-[1,1′-biphenyl]-3,3′-diyl)bis(5-(((2-hydroxyethyl)amino)methyl)-1,3,4-thiadiazole-2-carboxamide)]: under 25 nM; for `Cc1c(-c2cccc(N(C)C(=O)c3nc4c(s3)CNCC4)c2C)cccc1N(C)C(=O)c1nc2c(s1)CNCC2` [Example 23, N,N′-(2,2′-dimethyl-[1,1′-biphenyl]-3,3′-diyl)bis(N-methyl-4,5,6,7-tetrahydrothiazolo[5,4-c]pyridine-2-carboxamide)]: 100 to 200 nM. The same measure for `Cc1c(-c2cccc(N(C)Cc3nc4c(s3)CNCC4)c2C)cccc1N(C)Cc1nc2c(s1)CNCC2` [Example 24, N3,N3′,2,2′-tetramethyl-N3,N3′-bis((4,5,6,7-tetrahydrothiazolo[5,4-c]pyridin-2-yl)methyl)-[1,1′-biphenyl]-3,3′-diamine]: 100 to 200 nM; for `Cc1c(-c2cccc(N(C)Cc3nc4ccc(N)cc4s3)c2C)cccc1N(C)Cc1nc2c(s1)CNCC2` [Example 22, N3-((6-aminobenzo[d]thiazol-2-yl)methyl)-N3,N3′,2,2′-tetramethyl-N3′-((4,5,6,7-tetrahydrothiazolo[5,4-c]pyridin-2-yl)methyl)-[1,1′-biphenyl]-3,3′-diamine]: over 200 nM; for `O=C(Nc1cccc(-c2cccc(NC(=O)c3ncc(CN4C[C@H](O)C[C@H]4C(=O)O)s3)c2Cl)c1Cl)c1ncc(CN2C[C@H](O)C[C@H]2C(=O)O)s1` [Example 67, (2S,2'S,4R,4′R)-1,1′-(((((2,2′-dichloro-[1,1′-biphenyl]-3,3′-diyl)bis(azanediyl))bis(carbonyl))bis(thiazole-2,5-diyl))bis(methylene))bis(4-hydroxypyrrolidine-2-carboxylic acid)]: under 25 nM.
